Reference: patent publication US5424334A, “Peptide mimetic compounds useful as platelet aggregation inhibitors” (G. D. Searle & Co., priority 1991, dated 1995)
Counter-ions that a name gives are not always drawn.

Test system: Dog PRP (platelet aggregation)
Assay: In-vitro platelet aggregation in PRP (ADP-induced)
Format: cell-based
Conditions: Canis lupus familiaris, adenosine 5'diphosphate (ADP) induced, by linear regression of dose response curve
Procedure: In-Vitro Platelet Aggregation in PRP
Healthy male or female dogs were fasted for 8 hours prior to drawing blood; then 30 ml whole blood was collected using a butterfly needle and 30 cc plastic syringe with 3 ml of 0.129M buffered sodium citrate (3.8%). The syringe was rotated carefully as blood was drawn to mix the citrate. Platelet-rich plasma (PRP) was prepared by centrifugation at 975× g for 3.17 minutes at room temperature, allowing the centrifuge to coast to a stop without braking. The PRP was removed from the blood with a plastic pipette and placed in a plastic capped, 50 ml Corning conical sterile centrifuge tube which was held at room temperature. Platelet poor plasma (PPP) was prepared by centrifuging the remaining blood at 2000× g for 15 minutes at room temperature allowing the centrifuge to coast to a stop without braking. The PRP was adjusted with PPP to a count of 2-3×10^8 platelets per ml. 400 μl of the PRP preparation and 50 μl of the compound to be tested or saline were preincubated for 1 minute at 37° C. in a BioData aggregometer (BioData, Horsham, Pa.). 50 μl of adenosine 5'diphosphate (ADP) (50 μm final concentration) was added to the cuvettes and the aggregation was monitored for 1 minute. All compounds are tested in duplicate. Results are calculated as follows:
Percent of control=[(maximal OD minus initial OD of compound) divided by (maximal OD minus initial OD of control saline)]×100. The % inhibition=100-(percent of control).
In Table A, two readings given in a single box indicate that two trials, rather than a single trial, were run for that particular compound in that particular assay.

Compared with `N=C(N)c1ccc(CCCCNC(=O)[C@@H](CC(=O)O)NC(=O)OCc2ccccc2)cc1` [Compound 52513, 4-[[4-[4-(aminoiminomethyl)phenyl]butyl]amino]-4-oxo-3(R)-[[(Phenylmethoxy)carbonyl]amino]butanoic acid], `N=C(N)c1ccc(CCCCNC(=O)[C@@H](CCC(=O)O)NC(=O)OCc2ccccc2)cc1` [Compound 52809, 5-[[4-[4-(aminoiminomethyl)phenyl]butyl]amino]-5-oxo-4(R)-[[(phenylmethoxy)carbonyl]amino]pentanoic acid] is 1.7-fold lower in IC50: 3 µM for the first, 1.8 µM for the second.

Going from `N=C(N)c1ccc(CCCCNC(=O)[C@H](CCC(=O)O)NC(=O)OCc2ccccc2)cc1` [Compound 52828, 5-[[4-[4-(aminoiminomethyl)phenyl]butyl]amino]-5-oxo-4(S)-[[(phenylmethoxy)carbonyl]amino]pentanoic acid] to `CCOC(=O)CC[C@@H](NC(=O)OCc1ccccc1)C(=O)NCCCCc1ccc(C(=N)N)cc1` [Compound 53033, ethyl 5-[[4-[4-(aminoiminomethyl)phenyl]butyl]amino]-5-oxo-4R-[[(phenylmethoxy)carbonyl]amino]pentanoate, monohydrochloride], the IC50 rises from 4.2 µM to 7 µM (1.7-fold).

First: Cc1ccc(S(=O)(=O)N[C@H](CC(=O)O)C(=O)NCCCCc2ccc(C(=N)N)cc2)cc1 [Compound 53010, 4-[[4-[4-(aminoiminomethyl)phenyl]butyl]amino]-4-oxo-3R-[[(4-methylphenyl)sulfonyl]amino]butanoic acid]
Second: CS(=O)(=O)N[C@H](CCC(=O)O)C(=O)NCCCCc1ccc(C(=N)N)cc1 [Compound 53065, 5-[[4-[4-(aminoiminomethyl)phenyl]butyl]amino]-5-oxo-4(R)-methylsulfonylaminopentanoic acid]
The IC50 of the first is 1.7-fold higher: 6 µM for the first, 3.5 µM for the second.

First: N=C(N)c1ccc(CCCCNC(=O)[C@H](CCC(=O)O)NC(=O)CCc2ccccc2)cc1 [Compound 53112, 5-[[4-[4-(aminoiminomethyl)phenyl]butyl]amino]-5-oxo-4S-[1-oxo-3-phenylpropylamino]pentanoic acid]
Second: N=C(N)c1ccc(CCCCNC(=O)[C@@H](CC(=O)O)NC(=O)CCc2ccccc2)cc1 [Compound 53143, 4-[[4-[4-(aminoiminomethyl)phenyl]butyl]amino]-4-oxo-3R-[(1-oxo-3-phenylpropyl)amino]butanoic acid]
The IC50 of the first is 2.2-fold lower: 1.9 µM for the first, 4.1 µM for the second.

`N=C(N)c1ccc(C#CCCCNC(=O)[C@@H](CCC(=O)O)NC(=O)OCc2ccccc2)cc1` [Compound 53314, 5-[[5-[4-(aminoiminomethyl)phenyl]-4-pentynyl]amino]-5-oxo-4R-[[(phenylmethoxy)carbonyl]amino]pentanoic acid] showed an IC50 of 2 µM.
